Source: patent US20230271950A1, “ANTIBACTERIAL PICOLINAMIDE COMPOUNDS” (University of Notre Dame Du Lac, priority 2020, published 2023)
≈ marks a conversion by molar mass, not a printed value. Like-named read-outs stand apart in the source and are kept apart here.

How the values were obtained:
C. difficile = assay: MIC by broth microdilution against C. difficile strains; type: cell-based, Clostridioides difficile; conditions: for MIC: Table 9, read-out: MIC
MRSA (NRS70, NRS119) = assay: MIC against MRSA strains; type: cell-based, Staphylococcus aureus; conditions: Staphylococcus aureus, read-out: MIC
S. aureus ATCC29213 = assay: MIC against MSSA; type: cell-based, Staphylococcus aureus; conditions: Staphylococcus aureus; S. aureus ATCC29213; Table 1; read-out: MIC
E. faecium NCTC7171 = assay: MIC against E. faecium; type: cell-based, Enterococcus faecium; conditions: Enterococcus faecium; E. faecium NCTC7171; Table 1; read-out: MIC
Bacteroides fragilis = assay: MIC against gut bacterium Bacteroides fragilis; type: cell-based; conditions: Bacteroides fragilis, Bacteroides fragilis strain HM-709, read-out: MIC
Bifidobacterium longum = assay: MIC against gut bacterium Bifidobacterium longum; type: cell-based; conditions: Bifidobacterium longum, Bifidobacterium longum strain HM-846, read-out: MIC
Corynebacterium spp. = assay: MIC against gut bacterium Corynebacterium spp.; type: cell-based; conditions: Corynebacterium, Corynebacterium spp. strain HM-784
Fusobacterium nucleatum = assay: MIC against gut bacterium Fusobacterium nucleatum; type: cell-based; conditions: Fusobacterium nucleatum, Fusobacterium nucleatum strain HM-992, read-out: MIC
Lactobacillus reuteri = assay: MIC against gut bacterium Lactobacillus reuteri; type: cell-based
Lactobacillus gasseri = assay: MIC against gut bacterium Lactobacillus gasseri; type: cell-based
Veillonella sp. HM-49 = assay: MIC against gut bacterium Veillonella sp.; type: cell-based
Eubacterium sp. = assay: MIC against gut bacterium Eubacterium sp.; type: cell-based; conditions: Eubacterium, Eubacterium sp. strain HM-178, read-out: MIC

CCc1c(Cl)c(O)c(Cl)c(O)c1C(=O)O[C@H]1[C@H](O)[C@H](OC)[C@H](OC/C2=C\C=C\C[C@H](O)/C(C)=C/[C@H](CC)[C@@H](O[C@@H]3OC(C)(C)[C@@H](OC(=O)C(C)C)[C@H](O)[C@@H]3O)/C(C)=C/C(C)=C/C[C@@H]([C@@H](C)O)OC2=O)O[C@@H]1C [FDX, fidaxomicin, reference compound]
MIC (C. difficile; Clostridioides difficile, C. difficile NR-32882): 0.06 µg/mL (≈ 0.0567 µM)
MIC (C. difficile; Clostridioides difficile, C. difficile NR-32884): 0.03 µg/mL (≈ 0.0284 µM)
MIC (C. difficile; Clostridioides difficile, C. difficile NR-32885): 0.25 µg/mL (≈ 0.236 µM)
MIC (C. difficile; Clostridioides difficile, C. difficile NR-32886): 0.03 µg/mL (≈ 0.0284 µM)
MIC (C. difficile; Clostridioides difficile, C. difficile NR-32888): 0.03 µg/mL (≈ 0.0284 µM)
MIC (C. difficile; Clostridioides difficile, C. difficile NR-32889): 0.25 µg/mL (≈ 0.236 µM)
MIC (C. difficile; Clostridioides difficile, C. difficile NR-32890): 0.06 µg/mL (≈ 0.0567 µM)
MIC (C. difficile; Clostridioides difficile, C. difficile NR-32891): 0.03 µg/mL (≈ 0.0284 µM)
MIC (C. difficile; Clostridioides difficile, C. difficile NR-32892): 0.03 µg/mL (≈ 0.0284 µM)
MIC (C. difficile; Clostridioides difficile, C. difficile NR-32895): 0.03 µg/mL (≈ 0.0284 µM)
MIC (C. difficile; Clostridioides difficile, C. difficile NR-32896): 0.03 µg/mL (≈ 0.0284 µM)
MIC (C. difficile; Clostridioides difficile, C. difficile NR-32897): 0.03 µg/mL (≈ 0.0284 µM)
MIC (C. difficile; Clostridioides difficile, C. difficile NR-32900): 0.03 µg/mL (≈ 0.0284 µM)
MIC (C. difficile; Clostridioides difficile, C. difficile NR-32903): 0.03 µg/mL (≈ 0.0284 µM)
MIC (C. difficile; Clostridioides difficile, C. difficile NR-32904): 0.03 µg/mL (≈ 0.0284 µM)
MIC (C. difficile; Clostridioides difficile, C. difficile NR-49277): 0.06 µg/mL (≈ 0.0567 µM)
MIC (C. difficile; Clostridioides difficile, C. difficile NR-49278): 0.25 µg/mL (≈ 0.236 µM)
MIC (C. difficile; Clostridioides difficile, C. difficile NR-49279): 0.25 µg/mL (≈ 0.236 µM)
MIC (C. difficile; Clostridioides difficile, C. difficile NR-49281): 0.25 µg/mL (≈ 0.236 µM)
MIC (C. difficile; Clostridioides difficile, C. difficile NR-49282): 0.06 µg/mL (≈ 0.0567 µM)
MIC (C. difficile; Clostridioides difficile, C. difficile NR-49283): 0.03 µg/mL (≈ 0.0284 µM)
MIC (C. difficile; Clostridioides difficile, C. difficile NR-49284): 0.06 µg/mL (≈ 0.0567 µM)
MIC (C. difficile; Clostridioides difficile, C. difficile NR-49285): 0.06 µg/mL (≈ 0.0567 µM)
MIC (C. difficile; Clostridioides difficile, C. difficile NR-49286): 0.25 µg/mL (≈ 0.236 µM)
MIC (C. difficile; Clostridioides difficile, C. difficile NR-49287): 0.25 µg/mL (≈ 0.236 µM)
MIC (C. difficile; Clostridioides difficile, C. difficile NR-49288): 0.25 µg/mL (≈ 0.236 µM)
MIC (C. difficile; Clostridioides difficile, C. difficile NR-49289): 0.03 µg/mL (≈ 0.0284 µM)
MIC (C. difficile; Clostridioides difficile, C. difficile NR-49290): 0.06 µg/mL (≈ 0.0567 µM)
MIC (C. difficile; Clostridioides difficile, C. difficile NR-49291): 0.25 µg/mL (≈ 0.236 µM)
MIC (C. difficile; Clostridioides difficile, C. difficile NR-49293): ≤ 0.03 µg/mL
MIC (C. difficile; Clostridioides difficile, C. difficile NR-49295): ≤ 0.03 µg/mL
MIC (C. difficile; Clostridioides difficile, C. difficile NR-49296): ≤ 0.03 µg/mL
MIC (C. difficile; Clostridioides difficile, C. difficile NR-49297): 0.0125 µg/mL (≈ 0.0118 µM)
MIC (C. difficile; Clostridioides difficile, C. difficile NR-49300): 0.03 µg/mL (≈ 0.0284 µM)
MIC (C. difficile; Clostridioides difficile, C. difficile NR-49301): 0.03 µg/mL (≈ 0.0284 µM)
MIC (C. difficile; Clostridioides difficile, C. difficile NR-49303): 0.03 µg/mL (≈ 0.0284 µM)
MIC (C. difficile; Clostridioides difficile, C. difficile NR-49304): 0.06 µg/mL (≈ 0.0567 µM)
MIC (C. difficile; Clostridioides difficile, C. difficile NR-49306): 0.03 µg/mL (≈ 0.0284 µM)
MIC (C. difficile; Clostridioides difficile, C. difficile NR-49307): 0.03 µg/mL (≈ 0.0284 µM)
MIC (C. difficile; Clostridioides difficile, C. difficile NR-49309): 0.03 µg/mL (≈ 0.0284 µM)
MIC (C. difficile; Clostridioides difficile, C. difficile NR-49311): 0.03 µg/mL (≈ 0.0284 µM)
MIC (C. difficile; Clostridioides difficile, C. difficile NR-49313): 0.03 µg/mL (≈ 0.0284 µM)
MIC (C. difficile; Clostridioides difficile, C. difficile NR-49314): 0.25 µg/mL (≈ 0.236 µM)
MIC (C. difficile; Clostridioides difficile, C. difficile NR-49315): 0.06 µg/mL (≈ 0.0567 µM)
MIC (C. difficile; Clostridioides difficile, C. difficile NR-49317): 0.06 µg/mL (≈ 0.0567 µM)
MIC (C. difficile; Clostridioides difficile, C. difficile NR-49323): ≤ 0.03 µg/mL
MIC (C. difficile; Clostridioides difficile, C. difficile NR-49324): 0.06 µg/mL (≈ 0.0567 µM)
MIC (C. difficile; Clostridioides difficile, C. difficile NR-49325): 0.03 µg/mL (≈ 0.0284 µM)
MIC (C. difficile; Clostridioides difficile, C. difficile NR-49326): 0.03 µg/mL (≈ 0.0284 µM)
MIC (C. difficile; Clostridioides difficile, C. difficile NR-49327): 0.03 µg/mL (≈ 0.0284 µM)
MIC (C. difficile; Clostridioides difficile, C. difficile NR-49328): 0.03 µg/mL (≈ 0.0284 µM)
MIC (C. difficile; Clostridioides difficile, C. difficile NR-49329): 0.03 µg/mL (≈ 0.0284 µM)
MIC50 (C. difficile; Clostridioides difficile, 101 C. difficile strains): 0.06 µg/mL (≈ 0.0567 µM)
MIC90 (C. difficile; Clostridioides difficile, 101 C. difficile strains, read-out: MIC90 (101 strains)): 0.25 µg/mL (≈ 0.236 µM)
Selectivity (C. difficile; MIC MRSA NRS70/MIC C. difficile ATCC43255, Table 7): 128
MIC (MRSA (NRS70, NRS119); MRSA NRS70, Table 1): 8 µg/mL (≈ 7.56 µM)
MIC (MRSA (NRS70, NRS119); MRSA NRS70, Table 7): 8 µg/mL (≈ 7.56 µM)
MIC (MRSA (NRS70, NRS119); MRSA NRS119, Table 1): 2 µg/mL (≈ 1.89 µM)
MIC (S. aureus ATCC29213): 8 µg/mL (≈ 7.56 µM)
MIC (E. faecium NCTC7171): 2 µg/mL (≈ 1.89 µM)
MIC (Bacteroides fragilis; Table 1): > 32 µg/mL
MIC (Bacteroides fragilis; Table 7): > 32 µg/mL
MIC (Bifidobacterium longum; Table 1): < 0.01 µg/mL
MIC (Bifidobacterium longum; Table 7): < 0.01 µg/mL
MIC (Corynebacterium spp.; Table 1): < 0.06 µg/mL
MIC (Corynebacterium spp.; Table 7): < 0.0625 µg/mL
MIC (Fusobacterium nucleatum; Table 1): < 0.06 µg/mL
MIC (Fusobacterium nucleatum; Table 7): < 0.0625 µg/mL
MIC (Lactobacillus reuteri; Lactobacillus reuteri strain HM-102, Table 7): >32 µg/mL
MIC (Lactobacillus reuteri; Limosilactobacillus reuteri, Lactobacillus reuter strain HM-102, Table 1, read-out: MIC): > 32 µg/mL
MIC (Lactobacillus gasseri; Lactobacillus gasseri strain HM-644, Table 7): 2 µg/mL (≈ 1.89 µM)
MIC (Lactobacillus gasseri; Lactobacillus gasseri, Lactobacillus gasser strain HM-644, Table 1, read-out: MIC): 2 µg/mL (≈ 1.89 µM)
MIC (Veillonella sp. HM-49; SP.HM49, Veillonella sp. HM-49, Table 1, read-out: MIC): 8 µg/mL (≈ 7.56 µM)
MIC (Veillonella sp. HM-49; Veillonella sp. strain HM-49, Table 7): 8 µg/mL (≈ 7.56 µM)
MIC (Eubacterium sp.; Table 1): 16 µg/mL (≈ 15.1 µM)
MIC (Eubacterium sp.; Table 7): 16 µg/mL (≈ 15.1 µM)
